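48-hour exposure; five concentrations; linearly interpolated endpoints. GI50: concentration for 50% inhibition of growth.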 Activity calls are given as the source filed them. Cut-off read from the data, not from the text of the source: active = GI50 up to about 1.1 µM and inactive = higher.
What was measured:
Experiment in all cases: NCI-60 cell line screen, 48 h
786-0 = system: 786-0
A498 = system: A498
A549 = system: A549
ACHN = system: ACHN
BT-549 = system: BT-549
CAKI-1 = system: CAKI-1
CCRF-CEM = system: CCRF-CEM
COLO 205 = system: COLO 205
DU-145 = system: DU-145
EKVX = system: EKVX
HCC 2998 = system: HCC 2998
HCT-116 = system: HCT-116
HCT-15 = system: HCT-15
HL-60 = system: HL-60
HOP-62 = system: HOP-62
HOP-92 = system: HOP-92
HT-29 = system: HT-29
Hs-578T = system: Hs-578T
IGROV-1 = system: IGROV-1
K562 = system: K562
KM12 = system: KM12
M14 = system: M14
MCF7 = system: MCF7
MDA-MB-231 = system: MDA-MB-231
MDA-MB-435 = system: MDA-MB-435
MDA-N = system: MDA-N
MOLT-4 = system: MOLT-4
Malme-3M = system: Malme-3M
NCI-H226 = system: NCI-H226
NCI-H23 = system: NCI-H23
NCI-H460 = system: NCI-H460
NCI-H522 = system: NCI-H522
NCI/ADR-RES = system: NCI/ADR-RES
OVCAR-3 = system: OVCAR-3
OVCAR-4 = system: OVCAR-4
OVCAR-5 = system: OVCAR-5
OVCAR-8 = system: OVCAR-8
PC-3 = system: PC-3
RPMI-8226 = system: RPMI-8226
RXF 393 = system: RXF 393
SF-268 = system: SF-268
SF-295 = system: SF-295
SF-539 = system: SF-539
SK-MEL-28 = system: SK-MEL-28
SK-MEL-2 = system: SK-MEL-2
SK-OV-3 = system: SK-OV-3
SN12C = system: SN12C
SNB-19 = system: SNB-19
SNB-75 = system: SNB-75
SR = system: SR
T47D = system: T47D
TK-10 = system: TK-10
U-251 = system: U-251
UACC-62 = system: UACC-62
UO-31 = system: UO-31
LOX IMVI = system: LOX IMVI
SK-MEL-5 = system: SK-MEL-5
SW-620 = system: SW-620
UACC-257 = system: UACC-257

Measured: GI50

CC(=O)Oc1ccc2c(c1)c1c(OC(C)=O)c3ccccc3c(OC(C)=O)c1n2Cc1cccc(C)c1
inactive: 786-0 36.2 µM | A498 29.3 µM | A549 31.3 µM | ACHN 31.8 µM | BT-549 35.1 µM | CAKI-1 40.3 µM | CCRF-CEM 17.1 µM | COLO 205 60.5 µM | DU-145 > 100 µM | EKVX 15.8 µM | HCC 2998 22.8 µM | HCT-116 33.2 µM | HL-60 42.4 µM | HOP-62 25.3 µM | HOP-92 1.5 µM | HT-29 > 100 µM | Hs-578T 24.9 µM | IGROV-1 21.2 µM | K562 32.1 µM | KM12 28.4 µM | M14 30.3 µM | MCF7 44.3 µM | MDA-MB-231 31.1 µM | MDA-MB-435 65.6 µM | MDA-N 60.4 µM | MOLT-4 34.6 µM | Malme-3M 77.6 µM | NCI-H226 > 100 µM | NCI-H23 38.7 µM | NCI-H460 30.3 µM | NCI-H522 19.6 µM | NCI/ADR-RES > 100 µM | OVCAR-3 21.4 µM | OVCAR-4 33.3 µM | OVCAR-5 34.4 µM | OVCAR-8 48.6 µM | PC-3 52.4 µM | RPMI-8226 20.5 µM | RXF 393 38.9 µM | SF-268 29.8 µM | SF-295 19.5 µM | SF-539 25.1 µM | SK-MEL-28 > 100 µM | SK-MEL-2 20 µM | SK-OV-3 20.4 µM | SN12C > 100 µM | SNB-19 67 µM | SNB-75 18.5 µM | SR 24.3 µM | T47D 21.8 µM | TK-10 50.8 µM | U-251 22.3 µM | UACC-62 45.4 µM | UO-31 40 µM
53.7 µM: HCT-15

COc1cc(/C=C/C(=N\NS(=O)(=O)c2ccc(C)cc2)c2sc(NNC(C)=O)nc2C)ccc1O
> 100 µM: HCT-15
inactive: 786-0 > 100 µM | A498 > 100 µM | A549 > 100 µM | ACHN > 100 µM | BT-549 > 100 µM | CAKI-1 > 100 µM | CCRF-CEM > 100 µM | COLO 205 > 100 µM | DU-145 > 100 µM | EKVX > 100 µM | HCC 2998 > 100 µM | HCT-116 > 100 µM | HL-60 > 100 µM | HOP-62 > 100 µM | HOP-92 > 100 µM | HT-29 > 100 µM | Hs-578T > 100 µM | IGROV-1 > 100 µM | KM12 > 100 µM | LOX IMVI > 100 µM | M14 > 100 µM | MCF7 > 100 µM | MDA-MB-231 69.2 µM | MDA-MB-435 > 100 µM | MDA-N > 100 µM | MOLT-4 > 100 µM | Malme-3M > 100 µM | NCI-H226 > 100 µM | NCI-H23 > 100 µM | NCI-H460 > 100 µM | NCI-H522 > 100 µM | NCI/ADR-RES > 100 µM | OVCAR-3 > 100 µM | OVCAR-4 > 100 µM | OVCAR-5 > 100 µM | OVCAR-8 > 100 µM | PC-3 > 100 µM | RPMI-8226 > 100 µM | RXF 393 > 100 µM | SF-268 > 100 µM | SF-295 > 100 µM | SF-539 > 100 µM | SK-MEL-28 > 100 µM | SK-MEL-2 > 100 µM | SK-MEL-5 > 100 µM | SK-OV-3 > 100 µM | SN12C > 100 µM | SNB-19 > 100 µM | SNB-75 > 100 µM | SR > 100 µM | SW-620 > 100 µM | T47D > 100 µM | TK-10 > 100 µM | U-251 > 100 µM | UACC-257 > 100 µM | UACC-62 > 100 µM | UO-31 > 100 µM

O=c1nc(N2CCN(c3ccccc3)CC2)ccn1C1OC(CO)C(O)C1O (stereo unspecified)
inactive: 786-0 86.3 µM | A498 > 100 µM | A549 > 100 µM | ACHN > 100 µM | BT-549 53.2 µM | CAKI-1 > 100 µM | CCRF-CEM 35.6 µM | COLO 205 97.3 µM | DU-145 > 100 µM | EKVX 61.2 µM | HCC 2998 35.9 µM | HCT-116 56 µM | HL-60 39.9 µM | HOP-62 > 100 µM | HOP-92 24.2 µM | HT-29 49.2 µM | Hs-578T > 100 µM | IGROV-1 60.5 µM | K562 29.4 µM | KM12 38.1 µM | LOX IMVI 94.2 µM | M14 37.5 µM | MCF7 54.6 µM | MDA-MB-231 > 100 µM | MDA-MB-435 32.2 µM | MDA-N 56.8 µM | MOLT-4 49.7 µM | Malme-3M > 100 µM | NCI-H226 > 100 µM | NCI-H23 55.3 µM | NCI-H460 > 100 µM | NCI-H522 52.8 µM | NCI/ADR-RES > 100 µM | OVCAR-3 56.4 µM | OVCAR-4 27.1 µM | OVCAR-5 > 100 µM | OVCAR-8 55.7 µM | PC-3 74.5 µM | RPMI-8226 36.9 µM | RXF 393 > 100 µM | SF-268 > 100 µM | SF-295 61.5 µM | SF-539 > 100 µM | SK-MEL-28 > 100 µM | SK-MEL-2 > 100 µM | SK-MEL-5 42.6 µM | SK-OV-3 > 100 µM | SN12C > 100 µM | SNB-19 > 100 µM | SR 28.4 µM | SW-620 82 µM | T47D 22.5 µM | TK-10 > 100 µM | U-251 52.2 µM | UACC-257 45.1 µM | UACC-62 59.7 µM | UO-31 > 100 µM
> 100 µM: HCT-15

From ChEMBL document CHEMBL1201862, “PubChem BioAssay data set” (2004)
